Reference: the OPERA property sets (Mansouri et al. 2018)

SMILES	logP
COc1cc(Cc2cnc(N)nc2N)cc(OC)c1CO	0.42
CNC(=O)C(CC(C)C)NC(C)=O (configuration not stated)	0.14
COc1cc(-n2c(C)cc(=O)n2C)nc(C)n1	0.38
O=NN(CCF)C(=O)NC1CCC(NC(=O)N(CCF)N=O)CC1 (configuration not stated)	1.34
CC(=O)OCC(Cn1ccnc1[N+](=O)[O-])OC(C)=O (configuration not stated)	-0.05
COc1cc(Cc2cnc(N)nc2N)cc(OC)c1Br	2.01
CCCc1nnc(SC)n(N)c1=O	0.93
CN=C1SC(=Cc2ccc([N+](=O)[O-])o2)C(=O)N1C	1.42
Nc1cnc2ccccc2n1	1.5
CNC(=O)c1ccccc1/N=N/N(C)C	1.83
CCOC(=O)C(C#N)=NNc1cccc(Cl)c1	3.94
O=C(NC1CC1)c1cc(N2CC2)c([N+](=O)[O-])cc1[N+](=O)[O-]	0.74
CCC(=O)CC(=O)CC	1.12
O=NN(CCCl)C(=O)NCCCCNC(=O)N(CCCl)N=O	0.9
Cc1nc(-c2ccccn2)no1	0.79
COC1C(Cl)C(Cl)C(Cl)C(Cl)C1OC (configuration not stated)	2.82
CCCCCCCCCC[n+]1ccc(C)c(C)c1.[I-]	0.66
CCCCC1=Nc2ccc(Cl)cc2S(=O)(=O)N1	2.52
COc1ccc(Cc2cnc(N)nc2N)cc1O	0.74
COc1ccnc(-n2nc(C)cc2OC)n1	1.01
CNC(=O)ON=Cc1ccc(Cl)c(Cl)c1	2.89
CCOC(=O)C(C#N)=NNc1ccc(Cl)c(Cl)c1	4.66
CN(C)C(=O)OCc1ccccc1	2.16

SMILES	logP
COC(=O)c1c(OC)cc(Cc2cnc(N)nc2N)cc1OC	0.95
Nc1nc(N)nc(-c2c(Cl)cccc2Cl)n1	1.38
Cc1ccc(C(=N)c2ccc(C)cc2)cc1	3.71
CON=CCCc1ccccc1	2.14
CC(=O)Nc1cc(C(F)(F)F)cc(C(F)(F)F)c1Br	3.51
CCOC(=O)c1ccc2ncccc2c1	2.64
CCNC(=O)CNC(=O)C=[N+]=[N-]	-0.62
OCCCCCCn1nnc2ccccc21	1.71
Clc1ccc(N=C2NCCN2)c(Cl)c1	1.96
COP(=O)(OC)Oc1ccc([N+](=O)[O-])c(Cl)c1	1.83
COc1cc(CC(C)N)cc(OC)c1OC (configuration not stated)	1.21
CCOP(=S)(OCC)Oc1ccc(S(C)(=O)=O)cc1	2.56
CC1NC(=Nc2ncc([N+](=O)[O-])s2)OC1(C)C (configuration not stated)	1.88
NC(=O)Nc1ccc(Oc2ccc(Br)cc2)cc1	3.7
CC(=O)C(C#N)=NNc1ccc(SC(F)(F)F)cc1	5.04
O=C1CCC(=O)N1c1ccccc1Cl	0.56
CCN(CC)CCCNC(=O)c1ccccc1OC	1.76
CCOC(=O)C(=Cc1cccc(OC)c1)C(=O)OCC	3.18
CC(C)(C)C(=O)NN1CC=CCC1	1.03
Cc1ccoc1CN(C)C	1.63
CCc1ccc(O[Si]23OCCN(CCO2)CCO3)cc1	0.56
CC1CN(N=O)CC(C)N1N=O (configuration not stated)	0.08
COc1ccccc1C(=O)NCCN	0

SMILES	logP
CCC(=O)Nc1n[nH]c(NC(=O)CC)n1	0.07
Clc1ccc(Cl)c(N=C2NCCN2)c1	2.04
COc1c(Cl)cc(Cc2cnc(N)nc2N)cc1Cl	2.78
CC1=NS(=O)(=O)c2c(Cl)cccc2N1	0.62
CCCCCCCC[n+]1ccccc1.[I-]	-0.84
CC(O)Cn1ccnc1[N+](=O)[O-] (configuration not stated)	-0.16
Nc1nc2ccccc2o1	1.53
CCCCC(=O)NN	-0.11
O=S1(=O)NC(c2ccco2)=Nc2ccccc21	1.06
O=[N+]([O-])c1ccc(Oc2ccc(C(F)(F)F)cc2[N+](=O)[O-])cc1	3.65
CC(=O)C(C#N)=NNc1ccc(Cl)cc1	4.1
Cc1c[n+]([O-])c2ccccc2c1[N+](=O)[O-]	1.06
CC/N=C(N)/N=C(\N)Nc1ccc(Cl)cc1	2.14
CN(C)N=Nc1ccc(NC(N)=O)cc1	1.25
CNC(=O)Oc1cc(C)c(Cl)cc1C	2.95
CS(=O)(=O)c1cccs1	0.38
CC1(C)SC2C(NC(=O)C(O)c3ccccc3)C(=O)N2C1C(=O)O (configuration not stated)	1.4
CCC1=Nc2cc(Cl)ccc2S(=O)(=O)N1	1.61
CNP(=O)(OC)Oc1ccc(SC)cc1 (configuration not stated)	1.81
C[N+](C)(C)Cc1cccnc1.[Br-]	-3.5
CCC(C)NC(=O)C=C(C)c1ccc(Cl)cc1 (configuration not stated)	3.92
N#Cc1ccc(NC(=O)N=C(N)N)cc1Cl	1.9
CCCCCC(=O)N[C@@H]1C(=O)N2[C@@H]1SC(C)(C)[C@@H]2C(=O)O	2.37

SMILES	logP
CN(C)C(=O)CCc1ccco1	0.62
CNC(=O)Oc1ccccc1SC	1.51
O=C1CN=C(c2cccc(Cl)c2)c2cc(Br)ccc2N1	3.63
CCOC(=O)C(=Cc1cccc(F)c1)C(=O)OCC	3.19
COc1ccc(N(C)C(C)=O)cc1	0.72
Cc1cccc2nccc(=O)n12	0.74
CC(C)CN(CC(C)C)C(=O)C=Cc1ccc2c(c1)OCO2	4.37
S=C=NC(c1ccccc1)c1cccc2ccccc12 (configuration not stated)	6.44
CC1=Nc2c(I)cc(Cl)cc2S(=O)(=O)N1	1.81
CSC1=NC(=O)C(=Cc2ccc([N+](=O)[O-])o2)S1	1.41
CCOP(=S)(OCC)Oc1ccccc1	3.46
CC1=Nc2cc(N)c(Cl)cc2S(=O)(=O)N1	0.63
CCCN(CC)CC(F)(F)F	2.38
CSc1nnc(C(C)C)c(=O)n1N	1.01
CN(C)C(=O)Cc1ccsc1	0.65
Nc1ncc(Cc2cc(Cl)c(Cl)cc2Cl)c(N)n1	3.79
CNC(=O)Oc1cc(C)cc(C(C)(C)C)c1	3.35
Nc1nc(-c2ccccc2)c2ccccc2n1	2.95
CN1C(=N)SC(=Cc2ccc([N+](=O)[O-])o2)C1=O	1.44
Cc1ccc(NC2=NCCN2)c(C)c1	1.79
O=C(O)COc1ccc(Cl)c(C(=O)O)c1	1.07
N=C(N)NC(=O)Nc1ccc(Cl)c(Cl)c1	2.39
CCCCOCc1c(CO)cnc(C)c1O	1.34

SMILES	logP
O=C(NC(CO)C(O)c1cccc([N+](=O)[O-])c1)C(Cl)Cl (configuration not stated)	1.15
COc1cc(CC(C)N)c(OC)cc1Br (configuration not stated)	2.58
S=C=Nc1ccc(C=Cc2ccccc2)cc1	5.85
O=[N+]([O-])c1cnc(N=C2OCCN2CCO)s1	0.43
CC(=O)Nc1cccc(N=NN(C)C)c1	1.61
C#CCN(C)N=Nc1nc[nH]c1C(N)=O	0.33
O=C(c1ccncc1)c1ccc(O)cc1	1.37
Cn1c(=O)c(=O)n(C)c2ccccc21	0.08
CCCC(CO)n1cnc2c(N)ncnc21 (configuration not stated)	0.66
CCCCCCCCOn1c(=O)[nH]c(C)c(Br)c1=O	3.39
CCN(CC)CCNC(=O)c1cc(Br)ccc1OC	3.2
CC(=O)Oc1cccc(C(F)(F)F)c1	2.63
CCCCCC[n+]1ccccc1.[Br-]	-2.03
C#CCOn1c(=O)[nH]c(C)c(Br)c1=O	-0.1
Cc1ncc([N+](=O)[O-])n1CC(O)CCl (configuration not stated)	0.6
FC(F)(F)CCc1ccccc1	3.31
CCCOn1c(=O)cc(C)[nH]c1=O	0.3
CCNP(=O)(OC)SC (configuration not stated)	0.07
S=C=NCc1ccc2ccccc2c1	4.42
CCNNC(=O)COc1ccc(Cl)cc1	1.73
Cc1ccc(C=C[N+](=O)[O-])cc1	2.66
CCCCCCNC(=O)NN	0.46
O=c1ccnc2ccccn12	0.2

SMILES	logP
N#Cc1ccc(C=CNC=O)cc1	1.62
Clc1cccc(NC2=NCCN2)c1Cl	1.94
CC(C)(Cc1ccccc1)NC(=O)N(CCCl)N=O	3.73
CC(=O)c1ccc(N2C(N)=NC(N)=NC2(C)C)cc1	-0.04
NS(=O)(=O)c1ccccc1Cl	0.74
O=C(O)c1ccccc1Nc1cccc(O)c1	3.49
O=C(O)CCCCCn1nnc2ccccc21	0.86
Oc1cc(Cl)c(NC2=NCCN2)c(Cl)c1	1.52
CC(C)Nc1ccccc1C(N)=O	2.07
CS(=O)(=O)c1cccc(OCC(=O)O)c1	0.01
CNC(=O)C(NC(C)=O)C(C)C (configuration not stated)	-0.35
Nc1nc(N)nc(-c2cccc(Br)c2)n1	2.44
CCOP(=O)(OCC)Oc1ccc(SC)c(C)c1	3.28
COc1cc(OC)nc(-n2[nH]c(=O)cc2C)n1	1.16
COc1ccccc1C1=NCC(=O)Nc2ccc(Cl)cc21	2.63
O=NN(CCCl)C(=O)NC1CS(=O)(=O)CS(=O)(=O)C1	-0.94
CN(C)c1cc(Cc2cnc(N)nc2N)cc(N(C)C)c1	1.6
O=C(NCc1ccccc1O)c1ccccc1	2.55
CCCOn1c(=O)[nH]c(C)c(Br)c1=O	0.76
COc1cc(Cc2cnc(N)nc2N)ccc1Cl	1.87
NC(=O)c1[nH]cnc1/N=N/N(CCO)CCO	-1.09
CC(C)CNC(=O)NN	-0.84
CC(=O)C(C#N)=NNc1cc(C(F)(F)F)ccc1Cl	5.08

SMILES	logP
CCOC(=O)C(=Cc1ccc(OC)cc1)C(=O)OCC	3.28
COc1cc(CC(=O)O)ccc1OCc1ccccc1	2.59
CCCCN(SN(C)C(=O)ON=C(C)SC)C(C)=O	2.4
CCC(C)C(NC(C)=O)C(N)=O (configuration not stated)	-0.03
COc1cc(Cc2cnc(N)nc2N)cc(OC)c1C(C)C	3.37
CNC1CC2OC1c1ccccc12 (configuration not stated)	0.91
CCc1ccc(N=NN(C)C(C)=O)cc1	3.36
CCC(C)C1=Nc2ccc(Cl)cc2S(=O)(=O)N1 (configuration not stated)	2.47
CN1C(=O)SC(=CC=Cc2ccc([N+](=O)[O-])o2)C1=O	1.4
Nc1nc(N)nc(-c2cc(Cl)ccc2Br)n1	1.85
ClC1=C(Cl)C(Cl)C(Cl)C(Cl)C1Cl (configuration not stated)	4.31
Oc1ccnc2c(O)cccc12	0.62
COCCn1ccnc1[N+](=O)[O-]	0.12
CNC(=O)Oc1cccc(C(F)(F)F)c1	2.37
C[N+](C)(C)Cc1cccc(C(N)=O)c1.[Br-]	-2.8
NNc1ncnc2ccccc12	1.67
COc1cc(Cc2cnc(N)nc2N)cc(OC)c1C(C)=O	1.1
CC(C)NC(=O)C=Cc1ncc([N+](=O)[O-])s1	1.76
Cc1cc(NC(=O)NC(=N)N)ccc1Cl	2.19
